In publication PMC5566973 (Frontiers in Pharmacology, 2017):

Key:
[1] = tested on: Caco-2 cell monolayers; test: in vitro
Procedure: (§1) Caco-2, MDCK and MDCK-MRP2 cells were donated by Prof. Yan Xie and Yueming Ma from Shanghai University of Traditional Chinese Medicine. The cells were grown in culture dishes (Corning® Costar, Cambridge, MA, USA) using DMEM supplemented with 10% FBS, 1% NEAA and 1% penicillin-streptomycin solution. The cells were cultured in 5% CO2 and […] with 90% relative humidity at 37°C. The medium was replaced every other day during incubation. The cells were passaged every 3–4 days between 70 and 80% confluence at a 1:5 split ratio using 0.25% trypsin-EDTA. For the transport experiments, the cells from passages between 30 and 45 were seeded at 1 × 10^5 cells/cm^2 onto permeable polycarbonate inserts (0.45 μm pore size, seeding surface of 0.6 cm^2, Millipore, MA, USA) in 24-well plastic plates. The media in the culture plates were changed every other day for the first week after seeding and were replaced daily afterward. […] The cells were used for the transport experiments 21–28 (Caco-2) or 5–7 (MDCK and MDCK-MRP2) days after seeding, and only monolayers with a TEER-value above 420 Ω cm^2 were used during the studies.
(§2) The apical (AP) and basolateral (BL) sides are typical of polarized Caco-2, MDCK and MDCK-MRP2 epithelial cells. Before the experiments, the polarized cell monolayers were washed twice with warm HBSS solution and subsequently preincubated (37°C, 30 min). Afterward, HBSS solution on both sides of the cell monolayers was removed using a mini desktop vacuum pump. […] The final DMSO concentration in the HBSS or drug mixture was below 0.5%. The monolayers were incubated at 37°C, and 100 μL samples were taken at 30, 60, 90, and 120 min from the acceptor compartment and immediately replaced with the same volume of prewarmed fresh blank HBSS. TEER measurements for assessing the membrane integrity took place before and after the experiments.
(§3) The apparent permeability coefficients (Papp) and ER were calculated as Equations (2) and (3): […]
(§4) where dQ/dt is the steady-state flux, A is the membrane surface area, and C0 is the initial drug concentration in the donor compartment. PappBA is the Papp-value measured in BL to AP direction and PappAB is the Papp-value measured in AP to BL direction. It indicated the involvement of an active transport process when the ER-value is above 1.5 (Hubatsch et al., [2007]).

[2] = tested on: OCTs/OCTNs; test: Bidirectional transport in MDCK cell monolayers with selective transporter inhibitors or substrates; format: in vitro ADME, canine; conditions: dog, with TEA 5 mM, + TEA 5 mM (OCTs/OCTNs)
Procedure: as §1, §2, §3, §4

[3] = tested on: Na+/K+-ATPase; test: as above; format: in vitro ADME, canine; conditions: dog, with sodium vanadate 0.05 mM (50 μM), + Sodium vanadate 0.05 mM (Na^+)
Procedure: as §1, §2, §3, §4

[4] = tested on: BCRP; test: as above; format: in vitro ADME, canine; conditions: dog
Procedure: as §1, §2, §3, §4

[5] = tested on: SGLT1; test: as above; format: in vitro ADME, canine; conditions: dog, with phloridzin 0.5 mM, + Phloridzin 0.5 mM (SGLT1)
Procedure: as §1, §2, §3, §4

[6] = tested on: MDR1; test: as above; format: in vitro ADME, canine; conditions: dog
Procedure: as §1, §2, §3, §4

[7] = tested on: ATP (adenosine triphosphate); test: as above; format: in vitro ADME, canine; conditions: dog, with NaN3 10 mM, + NaN3 10 mM (ATP)
Procedure: as §1, §2, §3, §4

[8] = tested on: MDCK cell monolayers; test: as above; format: in vitro ADME, canine; conditions: 2 μM
Procedure: as §1, §2, §3, §4

[9] = tested on: MRP2; test: as above; format: in vitro ADME, canine; conditions: dog
Procedure: as §1, §2, §3, §4

[10] = Caco-2, 2 μM, + Apigenin 0.025 mM (BCRP)
[11] = Caco-2, 2 μM, + ES 0.05 mM (OATPs)
[12] = Caco-2, 2 μM, + Gly-Sar 10 mM (PEPT1)
[13] = Caco-2, 2 μM, + Ko143 0.01 mM (BCRP)
[14] = Caco-2, 2 μM, + MK571 0.05 mM (MRP2)
[15] = Caco-2, 2 μM, + NaN3 10 mM (ATP)
[16] = Caco-2, 2 μM, + Phloretin 0.3 mM (MCTs)
[17] = Caco-2, 2 μM, + Phloridzin 0.5 mM (SGLT1)
[18] = Caco-2, 2 μM, + Probenecid 0.2 mM (MRP2)
[19] = Caco-2, 2 μM, + TEA 5 mM (OCTs/OCTNs)
[20] = Caco-2, 2 μM, Control (no inhibitor or substrate)
[21] = with quinidine 0.1 mM (100 μM), + Quinidine 0.1 mM (MDR1)
[22] = Control (no inhibitor or substrate)
[23] = with MK571 0.05 mM (50 μM), + MK571 0.05 mM (MRP2)

SMILES: COc1ccc2c(c1)[nH]c1c(C)nccc12 [Harmine]
- PappAB ([1]; Caco-2, 2 μM, 4°C): 1.58 ± 0.57 1 × 10^−6 cm/s
- Modulatory effect [1, 10]: −
- PappBA [1, 10]: 28.40 ± 4.27 1 × 10^−6 cm/s
- Modulatory effect ([1]; Caco-2, 2 μM, + Cimetidine 0.05 mM (OATs)): −
- Modulatory effect [1, 11]: +
- PappAB [1, 11]: 14.64 ± 1.31 1 × 10^−6 cm/s
- PappBA [1, 11]: 28.43 ± 1.89 1 × 10^−6 cm/s
- Modulatory effect [1, 12]: −
- PappBA [1, 12]: 27.86 ± 1.96 1 × 10^−6 cm/s
- Modulatory effect [1, 13]: −
- PappBA [1, 13]: 27.96 ± 3.86 1 × 10^−6 cm/s
- Modulatory effect [1, 14]: +
- PappBA [1, 14]: 29.36 ± 2.73 1 × 10^−6 cm/s
- Modulatory effect [1, 15]: +
- PappBA [1, 15]: 27.94 ± 1.76 1 × 10^−6 cm/s
- Modulatory effect [1, 16]: −
- PappBA [1, 16]: 27.37 ± 2.13 1 × 10^−6 cm/s
- Modulatory effect [1, 17]: −
- PappBA [1, 17]: 29.39 ± 1.30 1 × 10^−6 cm/s
- Modulatory effect [1, 18]: +
- PappBA [1, 18]: 27.93 ± 2.33 1 × 10^−6 cm/s
- Modulatory effect ([1]; Caco-2, 2 μM, + Quinidine 0.1 mM (MDR1)): −
- Modulatory effect ([1]; Caco-2, 2 μM, + Sodium vanadate 0.05 mM (Na^+)): +
- Modulatory effect [1, 19]: +
- PappBA [1, 19]: 28.05 ± 1.20 1 × 10^−6 cm/s
- Modulatory effect ([1]; Caco-2, 2 μM, + Verapamil 0.1 mM (MDR1)): −
- PappAB [1, 20]: 18.52 ± 2.06 1 × 10^−6 cm/s
- PappBA [1, 20]: 29.40 ± 1.38 1 × 10^−6 cm/s
- PappBA ([1]; Caco-2, 2 μM, Control (pH 7.4, 37°C, without EDTA)): 29.34 ± 1.21 1 × 10^−6 cm/s
- PappBA ([1]; Caco-2, 2 μM, with EDTA 5 mM): 29.67 ± 2.22 1 × 10^−6 cm/s
- increase of PappAB ([1]; Caco-2, + MK571 vs control): 1.62 folds
- increase of PappAB ([1]; Caco-2, + probenecid vs control): 1.27 folds
- ER-values at the tested concentrations ([1]; Caco-2 and MDCK, 1, 2, and 5 μM): > 1.5
- PappAB ([1]; human, Caco-2): 24.11 ± 2.53^* 1 × 10^−6 cm/s
- PappAB ([1]; human, Caco-2, pH 7.4): 18.78 ± 1.26 1 × 10^−6 cm/s
- Papp A→B at 120 min, 2 μM [2]: 4.15 ± 0.1 ×10⁻⁶ cm/s
- Papp B→A at 120 min, 2 μM [2]: 6.96 ± 0.24 ×10⁻⁶ cm/s
- Papp A→B at 120 min, 2 μM [3]: 3.87 ± 0.27 ×10⁻⁶ cm/s
- Papp B→A at 120 min, 2 μM [3]: 5.22 ± 0.97 ×10⁻⁶ cm/s
- Papp B→A at 120 min, 2 μM ([4]; with Ko143 0.01 mM (10 μM), + Ko143 0.01 mM (BCRP)): 7.05 ± 0.16 ×10⁻⁶ cm/s
- Papp B→A at 120 min, 2 μM ([4]; with apigenin 0.025 mM (25 μM), + Apigenin 0.025 mM (BCRP)): 6.83 ± 1.01 ×10⁻⁶ cm/s
- Papp B→A at 120 min, 2 μM [5]: 6.27 ± 0.78 ×10⁻⁶ cm/s
- Papp A→B at 120 min, 2 μM [6, 21]: 4.43 ± 0.32 ×10⁻⁶ cm/s
- Papp B→A at 120 min, 2 μM [6, 21]: 7.39 ± 0.32 ×10⁻⁶ cm/s
- Papp B→A at 120 min, 2 μM ([6]; with verapamil 0.1 mM (100 μM), + Verapamil 0.1 mM (MDR1)): 7.67 ± 0.21 ×10⁻⁶ cm/s
- Papp A→B at 120 min, 2 μM [7]: 4.02 ± 0.18 ×10⁻⁶ cm/s
- Papp B→A at 120 min, 2 μM [7]: 5.94 ± 0.63 ×10⁻⁶ cm/s
- Modulatory effect ([8]; + Apigenin 0.025 mM (BCRP)): −
- PappAB ([8]; + Apigenin 0.025 mM (BCRP)): 4.48 ± 0.24 1 × 10^−6 cm/s
- Modulatory effect ([8]; + Cimetidine 0.05 mM (OATs)): −
- PappBA ([8]; + Cimetidine 0.05 mM (OATs)): 7.43 ± 0.62 1 × 10^−6 cm/s
- Modulatory effect ([8]; + ES 0.05 mM (OATPs)): −
- PappAB ([8]; + ES 0.05 mM (OATPs)): 4.59 ± 0.22 1 × 10^−6 cm/s
- PappBA ([8]; + ES 0.05 mM (OATPs)): 7.17 ± 0.68 1 × 10^−6 cm/s
- Modulatory effect ([8]; + Gly-Sar 10 mM (PEPT1)): −
- PappAB ([8]; + Gly-Sar 10 mM (PEPT1)): 4.59 ± 0.12 1 × 10^−6 cm/s
- PappBA ([8]; + Gly-Sar 10 mM (PEPT1)): 7.50 ± 0.34 1 × 10^−6 cm/s
- Modulatory effect ([8]; + Ko143 0.01 mM (BCRP)): −
- PappAB ([8]; + Ko143 0.01 mM (BCRP)): 4.50 ± 0.48 1 × 10^−6 cm/s
- Modulatory effect ([8]; + MK571 0.05 mM (MRP2)): +
- Modulatory effect ([8]; + NaN3 10 mM (ATP)): +
- Modulatory effect ([8]; + Phloretin 0.3 mM (MCTs)): −
- PappAB ([8]; + Phloretin 0.3 mM (MCTs)): 4.51 ± 0.16 1 × 10^−6 cm/s
- PappBA ([8]; + Phloretin 0.3 mM (MCTs)): 7.47 ± 0.27 1 × 10^−6 cm/s
- Modulatory effect ([8]; + Phloridzin 0.5 mM (SGLT1)): +
- PappAB ([8]; + Phloridzin 0.5 mM (SGLT1)): 3.89 ± 0.36^* 1 × 10^−6 cm/s
- Modulatory effect ([8]; + Probenecid 0.2 mM (MRP2)): +
- PappBA ([8]; + Probenecid 0.2 mM (MRP2)): 7.24 ± 0.27 1 × 10^−6 cm/s
- Modulatory effect ([8]; + Quinidine 0.1 mM (MDR1)): −
- Modulatory effect ([8]; + Sodium vanadate 0.05 mM (Na^+)): +
- Modulatory effect ([8]; + TEA 5 mM (OCTs/OCTNs)): +
- Modulatory effect ([8]; + Verapamil 0.1 mM (MDR1)): −
- PappAB ([8]; + Verapamil 0.1 mM (MDR1)): 4.59 ± 1.34 1 × 10^−6 cm/s
- PappAB [8, 22]: 4.60 ± 0.25 1 × 10^−6 cm/s
- PappBA [8, 22]: 7.32 ± 0.19 1 × 10^−6 cm/s
- Papp A→B at 120 min, 2 μM [9, 23]: 5.14 ± 0.1 ×10⁻⁶ cm/s
- Papp B→A at 120 min, 2 μM [9, 23]: 6.67 ± 0.37 ×10⁻⁶ cm/s
- Papp A→B at 120 min, 2 μM ([9]; with probenecid 0.2 mM (200 μM), + Probenecid 0.2 mM (MRP2)): 5.21 ± 0.26 ×10⁻⁶ cm/s
